Measured values: the CheMixHub viscosity set

Assay: xn = mol fraction of the nth substance listed

ClC(Cl)C(Cl)Cl + CNc1ccccc1
303 K, 101.33 kPa
Settings	viscosity [mPa·s]
x2 = 0.1012	1.439
x2 = 0.1991	1.49
x2 = 0.3016	1.541
x2 = 0.4007	1.59
x2 = 0.5004	1.633
x2 = 0.6007	1.66
x2 = 0.7017	1.686
x2 = 0.7992	1.707
x2 = 0.9013	1.73

CCCO + CO
Settings	viscosity [mPa·s]
293.15 K, 101 kPa, x2 = 0.25	1.379
293.15 K, 101 kPa, x2 = 0.5	1.015
293.15 K, 101 kPa, x2 = 0.75	0.825
293.15 K, 101.3 kPa, x2 = 0.174	1.78
293.15 K, 101.3 kPa, x2 = 0.339	1.45
293.15 K, 101.3 kPa, x2 = 0.51	1.16
293.15 K, 101.3 kPa, x2 = 0.741	0.857
293.15 K, 101.3 kPa, x2 = 0.873	0.711
298.15 K, 101 kPa, x2 = 0.25	1.243
298.15 K, 101 kPa, x2 = 0.5	0.931
298.15 K, 101 kPa, x2 = 0.75	0.775
298.15 K, 101.33 kPa, x2 = 0.1414	1.672
298.15 K, 101.33 kPa, x2 = 0.2419	1.483
298.15 K, 101.33 kPa, x2 = 0.3419	1.315
298.15 K, 101.33 kPa, x2 = 0.4462	1.159
298.15 K, 101.33 kPa, x2 = 0.5137	1.067
298.15 K, 101.33 kPa, x2 = 0.5731	0.992
298.15 K, 101.33 kPa, x2 = 0.7216	0.825
298.15 K, 101.33 kPa, x2 = 0.8038	0.744
298.15 K, 101.33 kPa, x2 = 0.8805	0.662
303.15 K, 101 kPa, x2 = 0.25	1.128
303.15 K, 101 kPa, x2 = 0.5	0.856
303.15 K, 101 kPa, x2 = 0.75	0.717
308.15 K, 101 kPa, x2 = 0.25	1.028
308.15 K, 101 kPa, x2 = 0.5	0.788
308.15 K, 101 kPa, x2 = 0.75	0.663
313.15 K, 101 kPa, x2 = 0.25	0.938
313.15 K, 101 kPa, x2 = 0.5	0.728
313.15 K, 101 kPa, x2 = 0.75	0.615
313.15 K, 101.3 kPa, x2 = 0.174	1.17
313.15 K, 101.3 kPa, x2 = 0.339	0.986
313.15 K, 101.3 kPa, x2 = 0.51	0.822
313.15 K, 101.3 kPa, x2 = 0.741	0.624
313.15 K, 101.3 kPa, x2 = 0.873	0.53
318.15 K, 101 kPa, x2 = 0.25	0.859
318.15 K, 101 kPa, x2 = 0.5	0.673
318.15 K, 101 kPa, x2 = 0.75	0.571
323.15 K, 101 kPa, x2 = 0.25	0.787
323.15 K, 101 kPa, x2 = 0.5	0.623
323.15 K, 101 kPa, x2 = 0.75	0.531

COCCOCCOC + CO
viscosity [mPa·s], 100 kPa
Settings	293.15 K	298.15 K	303.15 K
x2 = 0.056	1.064	0.984	0.903
x2 = 0.1076	1.05	0.97	0.89
x2 = 0.202	1.015	0.94	0.863
x2 = 0.2929	0.99	0.916	0.84
x2 = 0.3965	0.951	0.882	0.808
x2 = 0.4979	0.909	0.843	0.775
x2 = 0.5993	0.863	0.8	0.735
x2 = 0.6891	0.814	0.756	0.693
x2 = 0.7967	0.747	0.697	0.641
x2 = 0.8412	0.718	0.669	0.615
x2 = 0.8996	0.674	0.629	0.578
x2 = 0.948	0.637	0.595	0.546

COCCOCCOC + COC(=O)OC
viscosity [mPa·s], 101.33 kPa
Settings	298.15 K	308.15 K	318.15 K
x1 = 0.0428	0.608	0.536	0.485
x1 = 0.0832	0.626	0.55	0.496
x1 = 0.149	0.66	0.576	0.516
x1 = 0.2102	0.693	0.6	0.536
x1 = 0.2752	0.723	0.626	0.556
x1 = 0.3253	0.752	0.647	0.571
x1 = 0.3937	0.784	0.674	0.592
x1 = 0.4775	0.818	0.701	0.615
x1 = 0.5765	0.855	0.733	0.641
x1 = 0.6623	0.884	0.758	0.661
x1 = 0.7219	0.903	0.774	0.675
x1 = 0.8014	0.93	0.792	0.691
x1 = 0.8649	0.949	0.807	0.702
x1 = 0.8944	0.958	0.813	0.708
x1 = 0.9047	0.961	0.816	0.71
x1 = 0.9232	0.966	0.821	0.713
x1 = 0.9316	0.969	0.823	0.714
x1 = 0.9372	0.97	0.823	0.715
x1 = 0.9528	0.975	0.826	0.718

COCCOCCOC + COC(=O)c1ccccc1
viscosity [mPa·s], 101.33 kPa
Settings	x1 = 0.1017	x1 = 0.1985	x1 = 0.3026	x1 = 0.3989	x1 = 0.4978	x1 = 0.599	x1 = 0.6958	x1 = 0.7991	x1 = 0.8979
298.15 K	1.707	1.622	1.532	1.448	1.367	1.286	1.209	1.129	1.055
303.15 K	1.542	1.467	1.389	1.317	1.245	1.173	1.105	1.036	0.971
308.15 K	1.401	1.334	1.264	1.2	1.137	1.073	1.014	0.953	0.894
313.15 K	1.279	1.218	1.155	1.1	1.044	0.987	0.934	0.879	0.828
318.15 K	1.169	1.116	1.061	1.012	0.962	0.911	0.862	0.814	0.768

COCCOCCOC + COC(C)=O
viscosity [mPa·s], 101.33 kPa
Settings	x1 = 0.1	x1 = 0.198	x1 = 0.2969	x1 = 0.4015	x1 = 0.4988	x1 = 0.5951	x1 = 0.6954	x1 = 0.7941	x1 = 0.8973
298.15 K	0.441	0.498	0.559	0.621	0.683	0.741	0.801	0.861	0.922
303.15 K	0.418	0.47	0.526	0.582	0.639	0.691	0.746	0.799	0.855
308.15 K	0.396	0.445	0.496	0.548	0.6	0.646	0.696	0.745	0.795
313.15 K	0.376	0.418	0.469	0.516	0.564	0.607	0.652	0.697	0.741
